In US20250082663A1, “COMPOUNDS AND METHODS FOR TREATING OR […] DOMINANT POLYCYSTIC KIDNEY DISEASE (ADPKD), AUTOSOMAL DOMINANT […] DISEASE (ADPLD) AND/OR AUTOSOMAL RECESSIVE POLYCYSTIC KIDNEY DISEASE (ARPKD)” (YALE UNIVERSITY, priority 2021, published 2025):
“Also recorded” adds a separate entry of the source.

Experiments:
[1] = test system: Pkd1^flox/flox; Pax8rtTA; tet-OCre mice; assay: Adult ADPKD model, complete loss of function (doxycycline-induced Pkd1 deletion); format: in vivo, mouse; conditions: for KW/BW ratio: p=0.03
Source text: FIGS. 19A-19B: Ire1α inhibitor improves disease progression in an adult ADPKD model. Adult onset model with complete loss of function (Pkd1fl/fl;Pax8rtTA;tet-OCre). […]
The present study first tested toyocamycin in Pkd1^flox/flox; Pax8rtTA; tet-OCre mice. […] […] The present study recapitulated these findings in another slow progressing adult ADPKD model. A compound mutant model with a floxed Pkd1 allele in trans with a human pathogenic hR2220W (mR2216W) missense mutation that causes defects in PC1 GPS cleavage and trafficking was used. Pkd1^R2216W/flox line was crossed with either Pkhd1-Cre or Pax8rtTA; Tet-OCre to generate neonatal or adult doxycycline inducible lines respectively.

[2] = test system: PKD mice; assay: PKD mice / preclinical models, model not further specified; format: in vivo, mouse
Protocol: FIGS. 22A-22C: Irela inhibitor prevents cyst growth in preclinical models.
FIG. 36: Gene inactivation between P28 and P42. Treatment (0.5 mg/kg; 1×/2 wks) between 6-18 weeks of age.
The basal activity of spliced active XBP1s appears to be a protective survival factor for PC1-null cells that form cysts. […] Thus, specific pharmacological inhibition of the endoribonuclease activity of IRE1α, by inhibiting its ability to splice XBP1 to active XBP1s, should be beneficial in slowing cyst growth in ADPKD. This hypothesis was tested pharmacologically by inhibiting IRE1α endoribonuclease activity using toyocamycin, which is a potent IRE1α endoribonuclease inhibitor.

[3] = test system: Pkd1^R2216W/flox; Pax8rtTA; tet-OCre mice; assay: Adult ADPKD model with Pkd1 R2216W missense mutation in trans with floxed allele; format: in vivo, mouse
Protocol: In order to examine whether this drug leads to disease modifying effects in the adult counterpart of this model, Pkd1^RW/fl; Pax8^rtTA; Tet-OCre mice were generated. In this mice the Cre recombinase is turned on throughout the nephron (except for the PT S3 segment) using a doxycycline inducible system. The mice received doxycycline in the drinking water from P28-P42to induce Cre and inactivate Pkd1 and were then injected with toyocamycin once every 2weeks starting at 6 weeks of age.
(§1) The present study first tested toyocamycin in Pkd1^flox/flox; Pax8rtTA; tet-OCre mice. Animals were given doxycycline water between P28 to P42 then treatment was started from week 6 until week 18 (0.5 mg/kg; once every 2 weeks; 6 i.p. injections). […] The present study recapitulated these findings in another slow progressing adult ADPKD model. A compound mutant model with a floxed Pkd1 allele in trans with a human pathogenic hR2220W (mR2216W) missense mutation that causes defects in PC1 GPS cleavage and trafficking was used. Pkd1^R2216W/flox line was crossed with either Pkhd1-Cre or Pax8rtTA; Tet-OCre to generate neonatal or adult doxycycline inducible lines respectively.
Finally, the present study examined the status of apoptosis in kidneys isolated from Pkd1^R2216W/flox; Pax8rtTA; tet-OCre mice treated with toyocamycin between week 12 to 18 (FIG. 34). […] Finally, the present study set forth to examine whether the effect seen in mice can be recapitulated with a relevant cell line model. Although cell line models for PKD are average mimics of the animal models, they do provide opportunities for a closer look at mechanisms of genotype-phenotype relationships in the context of programmed cell death. The present study used a previously described cell line i.e. PN24; Pkd1^−/−) as the starting point for inactivation of XBP1 via CRISPR/Cas9. At baseline, no differences in cell viability among the 3 genotypes i.e. Pkd1^het, Pkd1^−/−, and Pkd1/XBP1 DKO were observed. The present study then compared the response of Pkd1^+/−, Pkd1^−/−, and Pkd1/XBP1 DKO cells to a sensitized background induced by treatment with 11β-dichloro, an ROS inducer.

[4] = test system: Pkd1^R2216W/flox; Pkhd1-Cre mice; assay: Neonatal ADPKD model with Pkd1 R2216W missense mutation in trans with floxed allele; format: in vivo, mouse
Protocol: Effect of toyocamycin were investigated in a relevant ADPKD model. For this a mouse model was constructed with a human Pkd1 missense mutation (R2216W) in trans with a floxed allele on a Pkhd1-Cre and Pax8-rtTA; tet-OCre background.
as §1

[5] = biological target: Ire1α endoribonuclease activity (Homo sapiens, UniProt O75460); conditions: cited from earlier work
Sequence of Ire1α endoribonuclease activity (O75460 19-977): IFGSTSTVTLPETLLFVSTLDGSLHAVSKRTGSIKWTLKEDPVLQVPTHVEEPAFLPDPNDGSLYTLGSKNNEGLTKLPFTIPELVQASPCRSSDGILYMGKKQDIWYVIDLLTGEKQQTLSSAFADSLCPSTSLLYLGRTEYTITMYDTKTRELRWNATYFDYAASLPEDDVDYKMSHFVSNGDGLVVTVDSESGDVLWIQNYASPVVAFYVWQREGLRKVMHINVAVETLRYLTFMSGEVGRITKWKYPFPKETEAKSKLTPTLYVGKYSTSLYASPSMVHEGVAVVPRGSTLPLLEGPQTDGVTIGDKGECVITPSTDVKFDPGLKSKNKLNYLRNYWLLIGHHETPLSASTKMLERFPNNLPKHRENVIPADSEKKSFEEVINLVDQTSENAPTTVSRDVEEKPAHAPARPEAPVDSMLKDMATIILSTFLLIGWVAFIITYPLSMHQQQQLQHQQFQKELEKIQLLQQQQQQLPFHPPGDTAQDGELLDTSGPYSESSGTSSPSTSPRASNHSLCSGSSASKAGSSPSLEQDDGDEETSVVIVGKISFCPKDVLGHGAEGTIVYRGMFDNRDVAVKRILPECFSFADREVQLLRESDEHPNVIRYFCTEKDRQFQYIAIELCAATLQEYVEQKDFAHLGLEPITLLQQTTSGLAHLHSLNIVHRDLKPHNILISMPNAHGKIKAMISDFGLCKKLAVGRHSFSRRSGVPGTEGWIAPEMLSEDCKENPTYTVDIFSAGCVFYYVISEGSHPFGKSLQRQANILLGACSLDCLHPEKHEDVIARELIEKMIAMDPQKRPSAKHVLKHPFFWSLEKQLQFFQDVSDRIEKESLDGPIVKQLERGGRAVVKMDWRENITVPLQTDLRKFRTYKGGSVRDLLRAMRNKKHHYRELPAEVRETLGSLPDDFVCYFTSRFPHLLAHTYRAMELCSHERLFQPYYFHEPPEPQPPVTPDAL

[6] = test system: nucleotide incorporation; conditions: up to concentrations of 10 uM; cited from earlier work
[7] = test system: cystic cell; assay: Cystic cell viability (FIGS. 18A-18B); format: cell-based
[8] = Phase 1 trial; no changes in Hb, WBC, Pt, AP, SGOT and BUN; cited from earlier work
[9] = biological target: IRE1α kinase activity (Homo sapiens, UniProt O75460); conditions: Ri, et al., 2012; cited from earlier work
Sequence of IRE1α kinase activity (O75460 19-977): as above

[10] = mouse, in vivo, listed as Irela inhibitor
[11] = 0.5 mg/kg i.p. once every 2 weeks, between week 6 and 18 (6 doses), p<0.001
[12] = treatment from p9 to p16 (once/week), vs vehicle treated animals

In the case of `N#Cc1cn([C@@H]2O[C@H](CO)C(O)C2O)c2ncnc(N)c12` (stereo partly drawn) [toyocamycin, 4-Aminopyrrolo[2,3-d]pyrimidine-5-carbonitrile 7-(β-D-ribofuranoside)], the liver toxicity ([1]; 0.5 mg/kg IP, 1×/week, from 13 wks until 18 wks) is reported as “does not cause liver toxicity”, the KW/BW ratio ([1]; 0.5 mg/kg every 2 weeks between 12 and 18, FIGS. 31A-31B) is reported as “decrease” and the KW/BW ratio ([1]; 0.5 mg/kg i.p. once every 2 weeks, week 6 until week 18, vs untreated mice) is reported as “significant decrease”. The disease progression ([1]; treatment from 6 to 18 weeks, started immediately after gene inactivation) was “improves”, the “dependence of the effect on Ire1” value ([2]; FIG. 36, 0.5 mg/kg, 1×/2 wks between 6-18 weeks of age) was “depends on the presence of Ire1” and the “apoptosis in cyst cells with PC1 mutation” value ([2]; FIGS. 22A-22C) was “Enhanced apoptosis”. For the same molecule, the “systemic toxicity (body weight)” value ([2]; FIGS. 22A-22C) was “No apparent systemic toxicity”, the collagen deposition ([2]; FIGS. 24A-24B) was “prevents” and the “BUN (kidney function)” value ([2]; mouse, in vivo) was “reduction”. For the same molecule, the “kidney to body weight ratio” value ([2]; mouse, in vivo) was “dramatic reduction”, the serum creatinine ([2]; mouse, in vivo) was “reduction” and the “BUN (kidney function)” value [2, 10] was “Normalized kidney function”. The “kidney to body weight ratio” value [2, 10] was “Reduced cyst growth”, the BUN [3, 11] was “almost a complete rescue; also recorded: dramatic improvement” and the KW/BW ratio [3, 11] was “almost a complete rescue; also recorded: dramatic improvement”. The cyst growth ([3]; 0.5 mg/kg, 1×/2 wks between 6-18 weeks of age) was “prevents”, the “apoptosis of cyst lining epithelia (TUNEL)” value ([3]; 0.5 mg/kg, 1×/2 wks, listed as Ire1α inhibitor) was “causes apoptosis” and the disease progression ([3]; once every 2 weeks starting at 6 weeks of age, vs vehicle treated animals) was “almost complete inhibition”. For the same molecule, the “effect in cells where Cre is not expressed (selectivity)” value ([3]; preliminary analysis, data not shown) was “restricted to Pkd1 null segments”, the “apoptosis in kidneys (TUNEL)” value ([3]; treated between week 12 to 18, proximal tubules marked by LTA) was “specific TUNEL-positive signal in cyst lining cells” and the “levels of spliced XBP1 (qPCR)” value ([3]; treated vs. untreated mice, target engagement) was “lower; also recorded: decreased expression”. The “cystic phenotype (morphological and functional parameters)” value ([3]; treatment from 6 weeks until 18 weeks age, FIG. 7) was “dramatic improvement”, the body weight ([3]; untreated vs. treated animals, once every 2 weeks, week 6 to 18) was “did not differ” and the “disease at P16” value ([4]; 0.5 mg/kg at P10) was “significantly improved disease”. The KW/BW ratio ([4]; 1 dose 0.5 mg/kg i.p. at P10, assessed at P16, p<0.001) was “dramatic improvement”, the BUN ([4]; 1 dose 0.5 mg/kg i.p. at P10, assessed at P16, p<0.05) was “dramatic improvement” and the “cystic phenotype (morphological and functional parameters)” value ([4]; FIG. 6) was “dramatic improvement”. For the same molecule, the “BUN (marker of kidney function)” value [4, 12] was “dramatic decrease”, the KW/BW ratio [4, 12] was “dramatic decrease” and the “inhibition of IRE1α endoribonuclease activity” value ([5]; Ri, et al., 2012) was “potent inhibitor”. The IC50 ([5]; in vitro, read-out: IC50, inhibition of Ire1α endoribonuclease activity) was about 100 nM, the “impact on nucleotide incorporation” value [6] was “without any impact” and the cystic cell viability [7] was “inhibits”. The systemic side effects [8] was “no apparent systemic side effects” and the “inhibition of IRE1α kinase activity” value [9] was “does not inhibit”.
